Measurements taken from article PMC8025584, “Identification of multipotent drugs for COVID-19 therapeutics with the evaluation of their SARS-CoV2 inhibitory activity” (Computational and Structural Biotechnology Journal, 2021).
Like-named read-outs stand apart in the source and are kept apart here.

Tests used:
[1] = test system: SARS-CoV2 virus (IND/ILS-01/2020); assay: Drug assay: viral load by real-time RT-PCR in SARS-CoV2 infected Vero E6 cells; format: cell-based; conditions: Vero E6, 0.1 MOI, 24 h treatment, cell-associated viral RNA by RT-PCR
[2] = set-up: method as in PMID 26506265, PMID 24466249, PMID 22454559; conditions: cited from earlier work
in vitro = conditions: monkey
SARS-CoV2 = test system: SARS-CoV2; set-up: method as in PMID 33330842; conditions: cited from earlier work
Vero E6 cells = conditions: Vero E6, MTT, 0.01-20 µM
[3] = test system: differentially expressed human proteins in COVID-19; conditions: drug-gene interaction listed in DGIdb export, ref DGIdb, cited from earlier work
[4] = Severe acute respiratory syndrome coronavirus 2, Vero C1008

In the case of Cc1ccc(-c2cc(C(F)(F)F)nn2-c2ccc(S(N)(=O)=O)cc2)cc1 [Celecoxib], the IC50 [1, 4] is listed as 3.25 µM, the “can cross blood brain barrier” value [2] is listed as “can cross blood brain barrier” and the CC50 (in vitro) is listed as > 20 µM.

With CCN(CCO)CCCC(C)Nc1ccnc2cc(Cl)ccc12 (stereo not drawn) [Hydroxychloroquine] the IC50 [1, 4] was 5 µM and the CC50 (in vitro) was > 20 µM.

With OC(c1cc(C(F)(F)F)nc2c(C(F)(F)F)cccc12)C1CCCCN1 (stereo not drawn) [Mefloquine] the IC50 [1, 4] was 0.37 µM and the CC50 (in vitro) was > 20 µM.

In the case of CC(C)(O)c1ccccc1CC[C@@H](SCC1(CC(=O)O)CC1)c1cccc(/C=C/c2ccc3ccc(Cl)cc3n2)c1 [Montelukast], the “can cross blood brain barrier” value [2] is given as “can cross blood brain barrier” and the CC50 (in vitro) is given as > 20 µM.

For OC(CNCC(O)C1CCc2cc(F)ccc2O1)C1CCc2cc(F)ccc2O1 (stereo not drawn) [Nebivolol], the IC50 [1, 4] is given as 5.21 µM, the “can cross blood brain barrier” value [2] is given as “can cross blood brain barrier” and the “inhibition of SARS-CoV2” value (SARS-CoV2) is given as “submicromolar range”. The CC50 (in vitro) was > 20 µM.

With Capreomycin the IC50 [1] was 1 µM and the CC50 (Vero E6 cells) was > 20 µM.

Ivermectin gave an IC50 [1] of 5.54 µM and a CC50 (Vero E6 cells) of 15 µM.

B1: TABALUMAB (antibody, chains of the INN, looked up, V domains shown)
VH: QVQLQQWGAGLLKPSETLSLTCAVYGGSFSGYYWSWIRQPPGKGLEWIGEINHSGSTNYNPSLKSRVTISVDTSKNQFSLKLSSVTAADTAVYYCARGYYDILTGYYYYFDYWGQGTLVTVSS
VL: EIVLTQSPATLSLSPGERATLSCRASQSVSRYLAWYQQKPGQAPRLLIYDASNRATGIPARFSGSGSGTDSTLTISSLEPEDFAVYYCQQRSNWPRTFGQGTKVEIK
In the case of B1, the interaction_types ([3]; gene TNFSF13B) is listed as “inhibitor”.

B2: CERTOLIZUMAB PEGOL (antibody, chains of the INN, looked up, V domains shown)
VH: EVQLVESGGGLVQPGGSLRLSCAASGYVFTDYGMNWVRQAPGKGLEWMGWINTYIGEPIYADSVKGRFTFSLDTSKSTAYLQMNSLRAEDTAVYYCARGYRSYAMDYWGQGTLVTVSS
VL: DIQMTQSPSSLSASVGDRVTITCKASQNVGTNVAWYQQKPGKAPKALIYSASFLYSGVPYRFSGSGSGTDFTLTISSLQPEDFATYYCQQYNIYPLTFGQGTKVEIK
modifications: Fab' PEGylated
For B2, the interaction_types ([3]; gene TNF) is listed as “inhibitor”.

B3: ONERCEPT (protein, UniProt P19438 30-211, looked up)
extracellular domain: LVPHLGDREKRDSVCPQGKYIHPQNNSICCTKCHKGTYLYNDCPGPGQDTDCRECESGSFTASENHLRHCLSCSKCRKEMGQVEISSCTVDRDTVCGCRKNQYRHYWSENLFQCFNCSLCLNGTVHLSCQEKQNTVCTCHAGFFLRENECVSCSNCKKSLECTKLCLPQIENVKGTEDSGTT
modifications: extracellular domain
For B3, the interaction_types ([3]; gene TNF) is given as “inhibitor”.

B4: PEGSUNERCEPT (protein, UniProt P19438 30-211, looked up)
extracellular domain: LVPHLGDREKRDSVCPQGKYIHPQNNSICCTKCHKGTYLYNDCPGPGQDTDCRECESGSFTASENHLRHCLSCSKCRKEMGQVEISSCTVDRDTVCGCRKNQYRHYWSENLFQCFNCSLCLNGTVHLSCQEKQNTVCTCHAGFFLRENECVSCSNCKKSLECTKLCLPQIENVKGTEDSGTT
modifications: extracellular domain PEGylated
In the case of B4, the interaction_types ([3]; gene TNF) is given as “inhibitor”.
